Data as given in patent US12208108B2, “Drug targets of delayed aging and human brain diseases” (Texas Tech University System, priority 2016, dated 2025).

Key:
[1] = test system: mutant APPSwe/Ind mouse neuroblastoma (N2a) cells; assay: Co-immunoprecipitation and immunoblotting of mutant APPSwe/Ind cells; format: cell-based; conditions: DDQ 250 nM 24 hrs vs mutant APPSwe/Ind cells untreated with DDQ
Description: Co-immunoprecipitation and immunoblotting analysis of mutant APPSwe/Ind cells treated with DDQ. To determine whether DDQ reduces the interaction of Aβ with Drp1 in mutant APPSwe/Ind cells, the inventors used mutant APPSwe/Ind cDNA construct transfected into mouse neuroblastoma (N2a) cells and further cells were treated with DDQ. The inventors performed immunoprecipitation with Aβ (6E10) antibody and immunoblotting analysis with 6E10 and the inventors also performed co-immunoprecipitation analysis with Aβ (6E10) antibody and immunoblotting analysis with Drp1 antibody. […] These findings further confirm that DDQ reduces full-length APP and 4 kDa Aβ and reduces interaction between Drp1 and Aβ.
Mutant APPSwe/Ind cells: The inventors purchased mutant APPSwe cDNA clone (pCAX-APPSwe/Ind) from Addgene—https://www.addgene.org and verified expression of mutant APP APPSwe/Ind cDNA and further sub-cloned into a mammalian expression vector (Arubala P. Reddy—unpublished observations). The inventors transfected mutant APPSwe/Ind cDNA into mouse neuroblastoma (N2a) cells for 24 hrs and after transfection, cells were treated with DDQ (250 nM) for 24 hrs. The inventors harvested mutant APPSwe/Ind cells treated and untreated with DDQ and prepared protein lysates and performed co-immunoprecipitation using Aβ (6E10) antibody and conducted immunoblotting analysis with 6E10 and Drp1 antibodies.
The inventors performed co-immunoprecipitation (co-IP) assays using the Dynabeads Kit for Immunoprecipitation (Invitrogen). Briefly, 50 μL of Dynabeads containing protein G was incubated with 10 μg 6E10 or 10 μg of the Drp1 antibodies (both mono- and polyclonal antibodies; Santa Cruz), with rotation, for 1 h at room temperature. The inventors used all the reagents and buffers provided in the kit. Details of antibodies used for co-IP and western blotting are given Table 5. The Dynabeads-Aβ complex was washed three times with a washing buffer and was then incubated overnight with 400 μg of protein at 4° C., with rotation. […]

SHSY5Y cells = assay: Immunofluorescence analysis of Drp1, synaptophysin and PSD95; format: cell-based, Human
Description: Immunofluorescence analysis of Drp1, synaptophysin and PSD95. To determine the effect of Aβ and DDQ on Drp1, synaptophysin and PSD95 levels and localizations, immunofluorescence analysis was performed in cells treated as shown in FIG. 7.
Immunofluorescence analysis. To study immune-reactivity of proteins of interest, cells were grown on coverslips using regular cell culture medium and treated as shown in strategy FIG. 3 and performed immunofluorescence analysis using the antibodies in these treated and untreated cells as described by Manzcak et al. Cells were washed with warm PBS, fixed in freshly prepared 4% paraformaldehyde in PBS for 10 min, and then washed with PBS and permeabilized with 0.1% Triton-X100 in PBS. They were blocked with 1% blocking solution (Invitrogen) for 1 hr at room temperature. All neurons were incubated overnight with primary antibodies. The neurons were incubated with appropriate secondary antibodies. The cells were washed neurons 3 times with PBS, and slides were mounted. Photographs were taken with a multiphoton laser scanning microscope system (ZeissMeta LSM510). To quantify the immunoreactivity of proteins of interest, for each treatment 10-15 photographs were taken at ×20 magnification.

[2] = target: T1, colocalization of Drp1 and Aβ (Homo sapiens, UniProt O00429); assay: Double-labeling immunofluorescence analysis of Drp1 and Aβ; format: cell-based
T1 construct: SHSY5Y cells incubated with Aβ peptide 1-42 (20 uM final concentration); Anaspec (Aβ 1-42 peptide); host or cells: SHSY5Y human neuroblastoma cells
Description: Double-labeling immunofluorescence analysis of Drp1 and Aβ. To determine whether Drp1 localizes and interacts with Aβ, the inventors conducted double-labeling analysis of Drp1 and Aβ in DDQ pre-treated, post-treated and untreated, Aβ incubated cells.
Double labeling immunofluorescence analysis of Drp1 and Aβ. To determine the interaction between Drp1 and Aβ, the inventors conducted double-labeling immunofluorescence analysis, using an anti-Drp1 antibody (rabbit polyclonal, Santa Cruz Biotechnology) and 6E10 (Covance). As described earlier, the sections from AD patients and control subjects were deparaffinized and treated with sodium borohydrate to reduce autofluorescence.
For the first labeling, the Aβ incubated (DDQ pre-treated, post-treated and untreated) cells were incubated overnight with the anti-Drp1 antibody (1:200) at room temperature. On the day after this primary antibody incubation, the sections were washed with 0.5% Triton in PBS. They were then incubated with a secondary biotinylated anti-rabbit antibody at a 1:400 dilution (Vector Laboratories, Burlingame, Calif., USA) or a secondary biotinylated anti-mouse antibody (1:400) for 1 h at room temperature. They were incubated for 1 h with labeled streptavidin, an HRP solution (Molecular Probes). […]

[3] = Aβ + DDQ (Aβ1-42 6 hrs, then DDQ 24 hrs) vs Aβ treated cells
[4] = DDQ + Aβ (DDQ 24 hrs, then Aβ1-42 6 hrs) vs Aβ treated cells

T1 sequence (O00429 whole entry): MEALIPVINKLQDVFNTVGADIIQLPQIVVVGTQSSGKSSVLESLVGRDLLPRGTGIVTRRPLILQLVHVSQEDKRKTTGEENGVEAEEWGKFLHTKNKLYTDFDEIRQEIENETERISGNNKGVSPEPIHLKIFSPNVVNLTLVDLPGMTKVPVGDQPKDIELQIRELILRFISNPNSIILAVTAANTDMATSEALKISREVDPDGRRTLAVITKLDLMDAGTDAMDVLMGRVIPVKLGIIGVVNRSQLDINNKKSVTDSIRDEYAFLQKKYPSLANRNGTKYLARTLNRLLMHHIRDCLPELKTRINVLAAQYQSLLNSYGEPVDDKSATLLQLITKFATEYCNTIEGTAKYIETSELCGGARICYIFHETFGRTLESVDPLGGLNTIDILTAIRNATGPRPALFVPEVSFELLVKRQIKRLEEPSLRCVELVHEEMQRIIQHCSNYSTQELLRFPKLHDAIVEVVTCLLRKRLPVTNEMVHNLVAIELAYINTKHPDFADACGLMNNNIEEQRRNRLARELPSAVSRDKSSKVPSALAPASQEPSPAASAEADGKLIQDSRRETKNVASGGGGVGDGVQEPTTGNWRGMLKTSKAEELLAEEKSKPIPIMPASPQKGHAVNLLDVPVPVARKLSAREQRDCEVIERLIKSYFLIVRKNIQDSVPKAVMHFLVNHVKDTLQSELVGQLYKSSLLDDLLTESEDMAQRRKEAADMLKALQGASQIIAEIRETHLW

SMILES: CCOP(=O)(OCC)C(NCCc1ccc(O)c(O)c1)c1ccnc2ccccc12 (stereo not drawn) [DDQ, diethyl(3,4-dihydroxyphenethylamine)(quinolin-4-yl)methylphosphonate]
- 4 kDa Aβ levels (IP 6E10, WB 6E10) [1]: reduced levels
- Drp1 levels (co-IP 6E10, WB Drp1) [1]: reduced levels
- full-length APP levels (IP 6E10, WB 6E10) [1]: reduced levels
- Drp1 levels (immunofluorescence) (SHSY5Y cells; [3]): Significantly reduced levels
- PSD95 levels (immunofluorescence) (SHSY5Y cells; [3]): increased
- synaptophysin levels (immunofluorescence) (SHSY5Y cells; [3]): increased
- Drp1 levels (immunofluorescence) (SHSY5Y cells; DDQ 250 nM 24 hrs vs untreated cells): decreased Drp1 levels were found in DDQ treated cells relative to untreated cells, but this was not significant
- Drp1 levels (immunofluorescence) (SHSY5Y cells; [4]): Significantly reduced levels
- PSD95 levels (immunofluorescence) (SHSY5Y cells; [4]): increased
- synaptophysin levels (immunofluorescence) (SHSY5Y cells; [4]): increased
- co-localization of Drp1 with Aβ ([2]; DDQ post-treated Aβ incubated cells vs Aβ incubated cells alone): reduced co-localization
- co-localization of Drp1 with Aβ ([2]; DDQ pre-treated Aβ incubated cells vs Aβ incubated cells alone): reduced co-localization
